“Also recorded” adds a separate entry of the source.
Experiments:
KLK5 [1] = target: T1, KLK5 (Homo sapiens, UniProt Q9Y337); test: Inhibition of KLK5 by organic compounds (dose response); format: biochemical
T1 sequence (Q9Y337 23-293): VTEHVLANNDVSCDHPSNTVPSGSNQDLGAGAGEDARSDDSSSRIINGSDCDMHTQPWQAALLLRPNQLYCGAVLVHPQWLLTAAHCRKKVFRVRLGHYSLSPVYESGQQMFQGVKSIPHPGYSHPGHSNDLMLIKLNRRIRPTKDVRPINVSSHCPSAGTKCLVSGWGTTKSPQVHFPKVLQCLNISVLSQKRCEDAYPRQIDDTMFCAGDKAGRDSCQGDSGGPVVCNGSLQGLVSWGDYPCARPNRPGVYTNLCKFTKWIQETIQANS
Experimental: FIGS. 14A-14B show the effect of organic compounds on KLK5 activity. FIG. 14A is a dose response curve for 3-(3-chlorophenyl) carboxy-7-hydroxymethyl coumarin. FIG. 14B is a dose response curve for 3-carboxy-7-hydroxymethyl coumarin.
Two organic compounds were tested for their inhibition of KLK5.

[2] = system: serine proteinases with trypsin-like activity; test: Trypsin-like / proteolytic activity in supernatants of SPINK7-depleted EPC2 cells; format: cell-based, human; conditions: following ALI differentiation
Experimental: (§1) FIG. 10A is a bar graph showing quantification of uPA activity in supernatants derived from (NSC) or SPINK7-depleted EPC2 cells following during ALI differentiation (day 7-9). FIG. 10B is a bar graph showing quantification of the activity of serine proteinases with trypsin-like activity in supernatants derived from (NSC) or SPINK7-depleted EPC2 cells and primary esophageal cells following ALI differentiation. Proteinase activity in the supernatants is calculated as nM concentrations according to standard dilutions of recombinant hKLK5. In vitro activity assays of KLK5 (FIG. 10C) KLK7 (FIG. 10D) and KLK11 (FIG. 10E) in the presence of the indicated concentrations of SPINK7. Data are represented as the mean±s.e.m.
FIG. 12A is a bar graph showing FPKM values of uPA in the esophagus of EoE patients and controls. FIG. 12B is a bar graph showing analysis of the uPA proteolytic activity (active units—AU) in esophageal biopsies from 6 normal and 6 EoE patients. […] FIG. 12D is a bar graph showing quantification of trypsin-like activity in supernatants derived from NSC or SPINK7-depleted EPC2 cells that were treated with A1AT or a vehicle following ALI differentiation. […]
The known SPINK7 target uPA (Cheng, X., Lu, S. H. & Cui, Y. Cancer letters 290, 87-95 (2010), and Huang, G. et al. Carcinogenesis 28, 2274-2281(2007)) was analyzed. […]

[3] = system: SPINK7-depleted EPC2 cells; test: Barrier function (electrical resistance) of SPINK7-depleted EPC2 cells during ALI differentiation; format: cell-based, human; conditions: treated with A1AT during ALI differentiation, Day 7
Experimental: (§2) FIG. 12A is a bar graph showing FPKM values of uPA in the esophagus of EoE patients and controls. FIG. 12B is a bar graph showing analysis of the uPA proteolytic activity (active units—AU) in esophageal biopsies from 6 normal and 6 EoE patients. […] FIG. 12D is a bar graph showing quantification of trypsin-like activity in supernatants derived from NSC or SPINK7-depleted EPC2 cells that were treated with A1AT or a vehicle following ALI differentiation. FIG. 12E are electrical resistance measurements of NSC or SPINK7-depleted EPC2 cells that were treated with A1AT or a vehicle during ALI differentiation (Day 7). FIG. 12F are H&E staining images of NSC or SPINK7-depleted EPC2 cells that were treated with A1AT or a vehicle after ALI differentiation (Day 14)-add. FIG. 12G are images of co-immunofluorescence staining of E-cadherin and Filaggrin of NSC or SPINK7-depleted EPC2 cells that were treated with A1AT or a vehicle following ALI differentiation.
Paracellular and transcellular permeability of the ALI cultured cells were analyzed. […] Transepithelial electrical resistance (A) was measured from NSC and SPINK7-depleted EPC2 cells measured at day 7 and 8 during ALI differentiation (data not shown; data were representative of four experiments performed in triplicate and are represented as the mean±Sd). […]

[4] = system: SPINK7-depleted EPC2 cells; test: H&E staining of SPINK7-depleted EPC2 cells after ALI differentiation (epithelial integrity); format: cell-based, human; conditions: ALI differentiation Day 14
Experimental: as §2
(§3) To extend the potential benefit of A1AT, its ability to restore the epithelial changes induced by SPINK7 loss was […]. […] Consistent with these findings, A1AT administration increased filaggrin expression (FIG. 12G)

Filaggrin = test: Co-immunofluorescence staining of filaggrin in SPINK7-depleted EPC2 cells; format: cell-based, human; conditions: following ALI differentiation
Experimental: as §2, §3

KLK5 [5] = target: T1, KLK5; test: In vitro KLK5 activity assay in the presence of SPINK7; format: biochemical
Experimental: as §1

KLK7 = KLK7 (Homo sapiens, UniProt P49862); test: In vitro KLK7 activity assay in the presence of SPINK7; format: biochemical
Chain of KLK7 (P49862 30-253): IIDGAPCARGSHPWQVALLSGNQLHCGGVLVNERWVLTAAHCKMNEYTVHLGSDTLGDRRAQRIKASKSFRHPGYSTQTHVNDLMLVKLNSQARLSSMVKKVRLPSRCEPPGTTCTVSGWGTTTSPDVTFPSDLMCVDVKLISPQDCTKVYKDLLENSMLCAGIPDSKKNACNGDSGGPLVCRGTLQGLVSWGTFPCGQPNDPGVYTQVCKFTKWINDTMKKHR
Experimental: as §1

KLK11 = target: T2, KLK11 (Homo sapiens, UniProt Q9UBX7); test: In vitro KLK11 activity assay in the presence of SPINK7; format: biochemical
T2 sequence (Q9UBX7 54-282): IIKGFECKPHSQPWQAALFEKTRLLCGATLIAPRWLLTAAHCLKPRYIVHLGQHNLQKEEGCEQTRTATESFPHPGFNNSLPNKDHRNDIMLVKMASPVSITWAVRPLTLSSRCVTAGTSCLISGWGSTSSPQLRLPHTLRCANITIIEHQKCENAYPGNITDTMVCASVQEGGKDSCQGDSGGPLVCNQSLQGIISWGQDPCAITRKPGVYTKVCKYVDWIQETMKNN
Experimental: as §1

uPA = uPA (Homo sapiens, UniProt P00749); test: uPA proteolytic activity inhibition by SPINK7; format: biochemical; conditions: data not shown
Experimental: The known SPINK7 target uPA (Cheng, X., Lu, S. H. & Cui, Y. Cancer letters 290, 87-95 (2010), and Huang, G. et al. Carcinogenesis 28, 2274-2281(2007)) was analyzed. […] An increased proteolytic activity using the broad trypsin-like activity substrate Val-Pro-Arg (FIG. 10B) was observed.

For “3-(3-chlorophenyl) carboxy-7-hydroxymethyl coumarin [Compound I]”, the IC50 (KLK5 [1]) was 52000 ± 12000 nM and the “type of KLK5 inhibition (reversibility)” value (KLK5 [1]) was “non reversible inhibitors”.

In the case of O=C(O)c1cc2ccc(CO)cc2oc1=O [Compound II, 3-carboxy-7-hydroxymethyl coumarin], the IC50 (KLK5 [1]) is reported as 83 ± 8 nM and the “type of KLK5 inhibition (reversibility)” value (KLK5 [1]) is reported as “non reversible inhibitors”.

In the case of “A1AT: serine proteinase inhibitor alpha-1 anti-trypsin, administered to SPINK7-silenced cells [Compound A1AT]”, the “trypsin-like activity of supernatant of SPINK7 silenced cells” value [2] is reported as “inhibited”, the “barrier function (electrical resistance)” value [3] is reported as “dose-dependent ability to improve barrier function” and the “epithelial integrity (inter-cellular spaces)” value [4] is reported as “decreased inter-cellular spaces”. For the same molecule, the filaggrin expression (Filaggrin) was “increased”.

B1: SPINK7: serine proteinase inhibitor kazal-type 7 protein, tested in vitro against KLK5, KLK7, KLK11 and uPA (protein, UniProt P58062 20-85, looked up)
Serine protease inhibitor …: SEAASLSPKKVDCSIYKKYPVVAIPCPITYLPVCGSDYITYGNECHLCTESLKSNGRVQFLHDGSC
In the case of B1, the “inhibition of KLK5 proteolytic activity” value (KLK5 [5]; in vitro) is reported as “inhibited”, the Ki (KLK5 [5]; mean±SD, dose-dependent, read-out: Ki, inhibition of KLK5 proteolytic activity) is reported as 132 ± 108 nM and the “inhibition of KLK7” value (KLK7) is reported as “did not inhibit; also recorded: not KLK7”. For the same molecule, the “inhibition of KLK11” value (KLK11) was “did not inhibit” and the “inhibition of uPA proteolytic activity” value (uPA) was “directly inhibited”.

— patent US12171740B2, “Compositions and methods for treating allergic inflammatory conditions” (CHILDREN'S HOSPITAL MEDICAL CENTER, priority 2016, dated 2024)
